Read-outs that look alike come from different tables or passages of the source.
Biological target: T1, human LPAR1 (Homo sapiens, UniProt Q92633)
T1 construct: expressed in transfected cells
Assay: Test Example 1: antagonism against response of LPA-induced increase in intracellular Ca2+ concentration in RH7777 cells stably expressing human LPAR1
Assay type: cell-based
How it was run: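 Ca2+ flux read at 540 nm emission (480 nm excitation) after LPA addition to human LPAR1-expressing RH7777 cells exposed to compound for 30 min, 37 °C, pH 7.4 HEPES-buffered HBSS. Response relative to no-compound control after basal subtraction; IC50 fitted from concentration–response.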

[1] = RH7777 cells stably expressing human LPAR1, Fluo-4 fluorescence, FDSS6000, read-out: IC50 value (concentration producing 50% antagonism against response of LPA-induced increase in intracellular Ca2+ concentration) (converted)

T1 sequence (Q92633 whole entry): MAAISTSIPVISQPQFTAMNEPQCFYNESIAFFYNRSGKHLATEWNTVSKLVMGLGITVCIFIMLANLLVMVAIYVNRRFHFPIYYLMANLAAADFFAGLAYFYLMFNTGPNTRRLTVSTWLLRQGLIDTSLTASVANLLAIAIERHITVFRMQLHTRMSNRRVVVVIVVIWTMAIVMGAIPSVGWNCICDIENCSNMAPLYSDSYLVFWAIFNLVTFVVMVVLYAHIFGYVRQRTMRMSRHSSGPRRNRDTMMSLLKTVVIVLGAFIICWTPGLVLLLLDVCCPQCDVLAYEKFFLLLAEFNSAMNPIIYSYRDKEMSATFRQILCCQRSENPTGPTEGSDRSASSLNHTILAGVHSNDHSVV

Row | IC50 [1] | IC50 | Compound
1 | 15.3 nM | – | CCOc1cc([C@@H](C)N(CCO[C@@H](C)c2cccc(Cl)c2)C(=O)NC2(C(=O)O)CCC2)c(Cl)c(OCC)c1C(C)=O [Example 4-176]
2 | 2.88 nM | – | CCOc1cc([C@@H](C)N(CCC(F)(F)Cc2ccccc2)C(=O)NC2(C(=O)O)CC(F)(F)C2)cc(OCC)c1C(C)=O [Example 4-84]
3 | 20.7 nM | – | CCNc1cc(C(C)N(CCCCc2ccccc2)C(=O)NC2(C(=O)O)Cc3ccccc3C2)cc(OCC)c1C(C)=O (centres unmarked) [Example 5-104]
4 | 114 nM | – | CCOc1cc(C(COC)N(CCCCc2ccccc2)C(=O)NC2(C(=O)O)CC(F)(F)C2)cc(OCC)c1C (centres unmarked) [Example 3-10]
5 | 3.24 nM | – | CCOc1cc([C@@H](C)N(CCCCc2ccccc2)C(=O)NC2(C(=O)O)CCS(=O)(=O)CC2)cc(OCC)c1C [Example 1-157]
6 | 2.58 nM | – | COc1cc(C(C)N(CCO[C@@H](C)c2ccccc2)C(=O)NC2(C(=O)O)CC(F)(F)C2)c(Cl)c(OC)c1C1CC1 (some centres unmarked) [Example 5-149]
7 | 4.16 nM | – | CCOc1cc([C@@H](C)N(CC/C=C(\C)c2ccccc2)C(=O)NC2(C(=O)O)CC(F)(F)C2)cc(OCC)c1C [Example 4-41]
8 | 1890 nM | – | CCOc1cc(C(C)N(CCCCc2ccccc2)C(=O)NC2(C(N)=O)CCCC2)cc(OCC)c1C (centres unmarked) [Example 6-1, 1-({[1-(3,5-Diethoxy-4-Methylphenyl)Ethyl](4-Phenylbutyl) Carbamoyl}Amino)Cyclopentane-1-Carboxamide]
9 | 3.38 nM | – | CCOc1cc(C(C)N(CCCCc2ccccc2)C(=O)NC2(C(=O)O)CC2)c(Cl)c(OCC)c1C(C)=O (centres unmarked) [Example 5-44]
10 | 2.31 nM | – | CCOc1cc([C@@H](C)N(CCO[C@@H](C)c2ccccc2)C(=O)N[C@]2(C(=O)O)C[C@@H](OC)C2)c(Cl)c(OCC)c1C(C)=O [Example 5-28]
11 | 8.1 nM | – | CCOc1cc([C@@H](C)N(CCCCc2ccccc2)C(=O)NC2(c3nn[nH]n3)CC(F)(F)C2)c(Cl)c(OCC)c1C(C)O (some centres unmarked) [Example 10-11]
12 | 506 nM | – | CCOc1cc(C(C)N(CCCCc2ccccc2)C(=O)NC2(c3nc(=O)o[nH]3)CCCC2)cc(OCC)c1C (centres unmarked) [Example 9-1, N-[1-(3,5-Diethoxy-4-Methylphenyl)Ethyl]-N′-[1-(5-Oxo-2,5-Dihydro-1,2,4-Oxadiazol-3-Yl)Cyclopentyl]-N-(4-Phenylbutyl) Urea]
13 | 1.25 nM | – | CCOc1cc([C@@H](C)N(CCOCc2ccccc2)C(=O)NC2(C(=O)O)CCC2)cc(OCC)c1C(C)=O [Example 4-101]
14 | 3.34 nM | – | CCOc1cc([C@@H](C)N(CCCC(F)(F)c2ccccc2)C(=O)N[C@]2(C(=O)O)C[C@@H](OCC)C2)cc(OCC)c1C(C)=O [Example 4-44, Trans-1-({[(1R)-1-(4-Acetyl-3,5-Diethoxyphenyl)Ethyl](4,4-Difluoro-4-Phenylbutyl) Carbamoyl}Amino)-3-Ethoxycyclobutane-1-Carboxylic Acid]
15 | 7.89 nM | – | CCOc1cc([C@@H](C)N(CCC(F)(F)Cc2ccccc2)C(=O)NC2(C(=O)O)CCC2)cc(OCC)c1C(C)=O [Example 4-81]
16 | 30.7 nM | – | COc1cc(C(C)N(CCOCc2ccccc2)C(=O)NC2(C(=O)O)CCC2)c(C)c(OC)c1C (centres unmarked) [Example 5-136]
17 | 3.45 nM | – | CCOc1cc(C(C)N(CCCCc2ccccc2)C(=O)NC2(C(=O)O)CC(F)(F)C2)cc(OCC)c1C1(O)CC1 (centres unmarked) [Example 1-37]
18 | 0.851 nM | – | CCOc1cc(C(C)N(CCOCc2ccccc2)C(=O)NC2(C(=O)O)CCOCC2)c(C)c(OCC)c1C1CC1 (centres unmarked) [Example 5-227]
19 | 3600 nM | – | CCOc1cc(C(C)N(CCCCc2ccccc2)C(=O)NC(CC(=O)O)C(=O)O)cc(OCC)c1C (centres unmarked) [Example 1-12]

Row | IC50 [1] | IC50 | Compound
20 | 3.27 nM | – | CCOc1c(C2CC2)ccc([C@@H](C)N(CCO[C@H](C)c2cccc(Cl)c2)C(=O)NC2(C(=O)O)CC(F)(F)C2)c1C [Example 4-181]
21 | 15.1 nM | – | CCNc1cc([C@@H](C)N(CCCCc2ccccc2)C(=O)NC2(C(=O)O)CC(F)(F)C2)cc(O)c1C(C)=O [Example 5-112]
22 | 11.9 nM | – | CCOc1cc([C@@H](C)N(CCCCc2ccccc2)C(=O)NC2(C(=O)O)CCN(C(C)=O)CC2)cc(OCC)c1C [Example 1-160]
23 | 46.4 nM | – | CCOc1cc([C@@H](C)N(CC(C)CCc2ccccc2)C(=O)NC2(C(=O)O)Cc3ccccc3C2)cc(OCC)c1C (some centres unmarked) [Example 4-39]
24 | 2.68 nM | – | CCOc1cc([C@@H](C)N(CCCC(F)(F)c2ccccc2)C(=O)NC2(C(=O)O)CCC2)cc(OCC)c1C(C)O (some centres unmarked) [Example 4-52]
25 | 4.47 nM | – | CCOc1cc([C@@H](C)N(CCCC(F)(F)c2ccccc2)C(=O)NC2(C(=O)O)CC(F)(F)C2)cc(OCC)c1C1(O)CC1 [Example 4-57]
26 | 8.05 nM | – | CCOc1cc([C@@H](C)N(CCO[C@@H](C)c2ccccc2)C(=O)N[C@]2(C(=O)O)C[C@H](OCC)C2)c(Cl)c(OCC)c1C(C)O (some centres unmarked) [Example 5-63]
27 | 1.36 nM | – | CCOc1cc([C@@H](C)N(CCCCc2ccccc2)C(=O)NC2(C(=O)O)CC(F)(F)C2)c(Cl)c(OCC)c1C(C)=O [Example 5-46]
28 | 3.1 nM | – | CCOc1cc(C(C)N(CCCCc2ccccc2)C(=O)NC2(C(=O)O)CC(OCC)C2)c(Cl)c(OCC)c1C(C)=O (centres unmarked) [Example 5-50]
29 | 4.94 nM | – | CCOc1c(C(C)=O)ccc([C@@H](C)N(CCCC(F)(F)c2ccccc2)C(=O)NC2(C(=O)O)CC2)c1C [Example 4-49]
30 | 5.48 nM | – | CCOc1cc([C@@H](C)N(CCCOc2ccccc2)C(=O)NC2(C(=O)O)CC(F)(F)C2)cc(OCC)c1C [Example 4-98]
31 | 3.43 nM | – | CCOc1cc([C@@H](C)N(CCO[C@@H](C)c2ccccc2)C(=O)N[C@]2(C(=O)O)C[C@@H](OCC)C2)cc(OCC)c1C(C)O (some centres unmarked) [Example 4-136]
32 | 2.95 nM | – | COc1cc(C(C)N(CCOC(C)c2ccccc2)C(=O)NC2(C(=O)O)CCC2)c(C)c(OC)c1C1CC1 (centres unmarked) [Example 5-139]
33 | 2.63 nM | – | CCOc1cc(C(C)N(CCOCc2ccccc2)C(=O)NC2(C(=O)O)CC2)c(C)c(OCC)c1C(C)=O (centres unmarked) [Example 5-186]
34 | 3.99 nM | – | CCOc1cc([C@@H](C)N(CCCC(F)(F)c2ccccc2)C(=O)NC2(C(=O)O)CC(OC)C2)cc(OCC)c1C(C)O (single isomer, unassigned) [Example 4-61]
35 | 2.77 nM | – | CCOc1cc([C@@H](C)N(CCO[C@@H](C)c2ccccc2)C(=O)NC2(C(=O)O)CCOCC2)c(Cl)c(OCC)c1C(C)=O [Example 5-33]
36 | 21.5 nM | – | CCOc1cc(C(C)N(CCC(F)(F)Cc2ccccc2)C(=O)NC2(c3nn[nH]n3)CC(F)(F)C2)c(Cl)c(OCC)c1C(C)=O (centres unmarked) [Example 10-12]
37 | 3.92 nM | – | CCOc1cc(C#N)cc(C(C)N(CCCCc2ccccc2)C(=O)NC2(C(=O)O)CC(F)(F)C2)c1 (centres unmarked) [Example 5-20]
38 | 8.86 nM | – | CCCOc1cc(OCC)cc(C(C)N(CCCCc2ccccc2)C(=O)NC2(C(=O)O)CC(F)(F)C2)c1 (centres unmarked) [Example 5-17]

Row | IC50 [1] | IC50 | Compound
39 | 2.34 nM | – | CCNc1cc([C@@H](C)N(CCCCc2ccccc2)C(=O)NC2(C(=O)O)CC(F)(F)C2)cc(OCC)c1C#N [Example 5-115]
40 | 6.29 nM | – | CCOc1c(C)ccc([C@@H](C)N(CCOC(C)c2ccccc2)C(=O)NC2(C(=O)O)CC(F)(F)C2)c1C (some centres unmarked) [Example 4-168]
41 | 45.4 nM | – | CCOc1cc(OCC)cc([C@@H](C)N(CCCCc2ccccc2)C(=O)NC2(C(=O)O)Cc3ccccc3C2)c1 [Example 5-12]
42 | 7.13 nM | – | CCOc1cc(C(C)N(CCCCc2ccccc2)C(=O)NC2(C(=O)O)CC(F)(F)C2)cc(OCC)c1C(O)CC (centres unmarked) [Example 1-33]
43 | 3.68 nM | – | CCOc1c(C(C)=O)ccc([C@@H](C)N(CCCCc2ccccc2)C(=O)NC2(C(=O)O)CCOCC2)c1C [Example 1-156]
44 | 4.22 nM | – | CCOc1cc(C(C)N(CCCCc2ccccc2)C(=O)NC2(C(=O)O)CC(F)(F)C2)cc(F)c1C(C)O (centres unmarked) [Example 1-72]
45 | 1.93 nM | – | CCOc1cc([C@@H](C)N(CCOCc2ccccc2)C(=O)N[C@]2(C(=O)O)C[C@H](OC)C2)c(C)c(OCC)c1C(C)=O [Example 5-74]
46 | 4.84 nM | – | CCOC1CC(NC(=O)N(CCOCc2ccccc2)C(C)c2cc(OC)c(C(C)=O)c(OC)c2C)(C(=O)O)C1 (centres unmarked) [Example 5-164]
47 | 3.61 nM | – | CCOc1cc([C@@H](C)N(CCC(F)(F)Cc2ccccc2)C(=O)NC2(C(=O)O)CC(OCC)C2)cc(OCC)c1C1CC1 (some centres unmarked) [Example 4-94]
48 | 1.78 nM | – | CCNc1cc([C@@H](C)N(CCCCc2ccccc2)C(=O)NC2(C(=O)O)CCC2)cc(OCC)c1C(C)=O [Example 5-110]
49 | 1.46 nM | – | CCOc1cc(C(C)N(CCOCc2ccccc2)C(=O)NC2(C(=O)O)CCC2)c(Cl)c(OCC)c1C(C)=O (centres unmarked) [Example 5-189]
50 | 2.91 nM | – | CCOc1cc([C@@H](C)N(CCO[C@@H](C)c2ccccc2)C(=O)N[C@]2(C(=O)O)C[C@@H](OCC)C2)cc(OCC)c1C1CC1 [Example 4-138, trans-1-[([(1R)-1-(4-cyclopropyl-3,5-diethoxyphenyl)ethyl]{2-[(1S)-1-phenylethoxy]ethyl}carbamoyl)amino]-3-ethoxycyclobutane-1-carboxylic acid]
51 | 5.17 nM | – | CCOc1cc([C@@H](C)N(CCCCc2ccccc2)C(=O)NC2(C(=O)O)CCOCC2)cc(OCC)c1C(C)O (stereo partly drawn) [Example 1-152, 4-{[{(1R)-1-[3,5-Diethoxy-4-(1-Hydroxyethyl)Phenyl]Ethyl}(4-Phenylbutyl) Carbamoyl]Amino}Oxane-4-Carboxylic Acid]
52 | – | 4680 nM | COc1cc(CN(CCCCc2ccccc2)C(=O)NC(CC(C)C)C(=O)O)cc(OC)c1C (centres unmarked) [Example 1-5]
53 | 1.88 nM | – | COc1cc(C(C)N(CCOCc2ccccc2)C(=O)NC2(C(=O)O)CCC2)c(C)c(OC)c1C1CC1 (centres unmarked) [Example 5-135]
54 | 2.21 nM | – | CCOc1cc([C@@H](C)N(CCCCc2ccccc2)C(=O)NC2(C(=O)O)CC(OC)C2)cc(OCC)c1C(C)O (single isomer, unassigned) [Example 1-89]
55 | 1.41 nM | – | CCOc1cc(C(C)N(CCOCc2ccccc2)C(=O)NC2(C(=O)O)CC(F)(F)C2)cc(OCC)c1C1CC1 (centres unmarked) [Example 5-196]
56 | 7630 nM | – | CCOc1cc([C@@H](C)N(CCCCC2CCNCC2)C(=O)NC2(C(=O)O)CC(F)(F)C2)cc(OCC)c1C [Example 4-34, 1-({[(1R)-1-(3,5-Diethoxy-4-Methylphenyl)Ethyl][4-(Piperidin-4-Yl)Butyl]Carbamoyl}Amino)-3,3-Difluorocyclobutane-1-Carboxylic Acid]
